The subject of experiment [1] is T. cruzi. Particulars: infected rats; BZ parasite-induced, PBN oxidative stress-induced (Wen et al. 2006, 2010); cited from earlier work.
For experiment [2], the system named is T. cruzi. The experiment is described as follows: Oxidative modification (carbonylation) of plasma proteins in chagasic rats treated with PBN and/or BZ. The class given is in vivo, rat. Particulars: infected rats, plasma proteins. An excerpt: Certain embodiments include biomarkers identified in a previous study. Parasite persistence and oxidative damage in the heart are known to be of pathological significance during Chagas disease (Zacks et al., (2005) An Acad Bras Cienc, 77, 695-715; Gupta et al., (2009) Interdiscip Perspect Infect Dis, 2009, 190354). […] In the previous study the inventors identified 92 proteins that were differentially expressed or oxidized in chagasic plasma. Functional analysis allocated a majority of these proteins to inflammation/immunity and lipid metabolism categories, and to molecular pathways associated with cardiovascular dysfunction, e.g., myocardial infarction, hypertrophy, and fibrosis, and pulmonary embolism and hypertension. Some proteins in chagasic rats treated with PBN and/or BZ were allocated to curative pathways (immune regulation and cardiac remodeling). The 2D-GE results were validated by Western blotting. […] Increased plasma levels of GSN, MYL2, and VIM were directly correlated with the severity of cardiac disease in human chagasic patients. […] These findings have utility in diagnosing disease severity and designing suitable therapy for management of human chagasic patients. […]

Experiment [3] relates to T. cruzi. Description: 2D-GE plasma proteome profile (differential protein expression) of T. cruzi-infected rats treated with PBN and/or BZ. Format: in vivo, rat. Particulars: plasma, RCP/RCB/RCPB groups (chronic infection). An excerpt:
Certain embodiments include biomarkers identified in a previous study. Parasite persistence and oxidative damage in the heart are known to be of pathological significance during Chagas disease (Zacks et al., (2005) An Acad Bras Cienc, 77, 695-715; Gupta et al., (2009) Interdiscip Perspect Infect Dis, 2009, 190354). […] In the previous study the inventors identified 92 proteins that were differentially expressed or oxidized in chagasic plasma. Functional analysis allocated a majority of these proteins to inflammation/immunity and lipid metabolism categories, and to molecular pathways associated with cardiovascular dysfunction, e.g., myocardial infarction, hypertrophy, and fibrosis, and pulmonary embolism and hypertension. Some proteins in chagasic rats treated with PBN and/or BZ were allocated to curative pathways (immune regulation and cardiac remodeling). The 2D-GE results were validated by Western blotting. […] Increased plasma levels of GSN, MYL2, and VIM were directly correlated with the severity of cardiac disease in human chagasic patients. […] These findings have utility in diagnosing disease severity and designing suitable therapy for management of human chagasic patients.
Ingenuity Pathway Analysis (IPA) is a highly curated and comprehensive software used for the integration of proteins into networks and pathways with biological meaning (Thomas and Bonchev, (2010). Hum Genomics, 4, 353-360). Network analysis of the plasma proteome profile of chagasic rats identified four major sub-networks linked to host response to T. cruzi infection and disease development (Table V). The maximal numbers of the differentially expressed plasma proteins (19 proteins) in chagasic rats were associated with antigen presentation and inflammatory response category (Table V) and indicators of persistent inflammation, known to be of pathological significance in Chagas disease (Dhiman et al., (2009) Clinical and Vaccine Immunology, 16, 660-666; Tanowitz et al., (2009) Prog Cardiovasc Dis, 51, 524-539; Junqueira et al., (2010) Expert Rev Mol Med, 12, e29). Following functional analysis of the inflammation-associated proteins, 12 proteins (APOA1, APOE, C3, CFB, CFH, FGB, GSN, KRT10, PLG, SCG2, SERPINA1, and SERPINC1) were identified as being involved in immune cell trafficking and cell movement of leukocytes, granulocytes, phagocytes, neutrophils, and dendritic and antigen presenting cells. Some of the differentially expressed proteins in inflammation category were associated with activation (APOE, C3, CFH, GC and PLG), chemotaxis (C3, SCG2, SERPINA1, SERPINC1), and infiltration of leukocytes (APOA1, APOE, C3, PLG, KRT10) and neutrophils (C3, CFB, CFH, PLG). Up regulation of APOE, APOA1, APOH, GC and PLG in chagasic plasma was indicative of activation, binding and accumulation of macrophages in the disease state. Of the 19 differentially expressed inflammation-associated proteins, 11 proteins (APOE, C3, CFB, CFH, GSN, KRT10, SCG2, SERPINA1, SERPINC1, GC, and PLG) were carbonylated in chagasic plasma. […] Other proteins (APOE, C3, KRT3, and SCG2) were exposed to oxidation due to T. cruzi-induced, acute oxidative stress, but were normalized in expression and oxidation during the chronic phase.
Seventeen of the differentially expressed proteins in chagasic plasma, i.e., AFM, C4BPA, CACNA1D, DLGAP2, GC, KNG1, MUG1, MYLPF, MY05A, MY05B, PRPH, PZP, RAI14, and SCG2, were allotted to the lipid metabolism/molecular transport/small molecule biochemistry category (Table V) and functionally linked by IPA network analysis to lipid, fatty acid, and carbohydrate metabolism. A majority of the proteins in this category, i.e., ALB, APOA1, APOA4, APOE, APOH, C3, GC, GNAQ, MY05A, PLG, SCD2, SERPINA1, SERPINC1 and VIM, were linked to the synthesis, metabolism, transport, and modification of lipids and fatty acids, and to uptake and release or efflux of lipids, eicosanoids, and cholesterol. […]

Consider `O=C(Cn1ccnc1[N+](=O)[O-])NCc1ccccc1` [BZ], for which, in experiment [1], the “controlling parasite- and oxidative stress-induced pathology” value was “beneficial effects”. Further, the preventing protein carbonylation entry in experiment [2] is listed as “not effective in preventing protein carbonylation”. For the same compound, in experiment [3], the “Spot# 34 Average Normalized Density × 100,000” value came out at 0.37; the “Spot# 52, 54, 302 Average Normalized Density × 100,000” value came out at 0.60; the “Spot# 94 Average Normalized Density × 100,000” value is recorded as 0.55; the “Spot# 181 Average Normalized Density × 100,000” value was determined as 7.53. Also, in experiment [3], the “Spot# 586, 614 Average Normalized Density × 100,000” value is 132.20; the “Spot# 672 Average Normalized Density × 100,000” value amounted to 23.29; the “Spot# 715 Average Normalized Density × 100,000” value stood at 30.96; the “Spot# 745 Average Normalized Density × 100,000” value is on record as 2.30.

The values are drawn from patent publication US9696323B2, “Biomarkers for chagas disease related cardiomyopathy” (THE BOARD OF REGENTS OF THE UNIVERSITY OF TEXAS SYSTEM, priority 2013, dated 2017).
